Test system: panel of 4 panelists (sweet taste)
Test: Organoleptic test of the compounds of formula (I) against sucrose and mogroside V
Format: in vivo
Design: key: 3 = sweeter than control, 1 = less sweet than control but still sweet
Conditions: compound 0.4 mg/ml (400 ppm) in non-carbonated mineral water; for Organoleptic evaluation compared to mogroside V*: control solution mogroside V 0.1 mg/ml (100 ppm); for Organoleptic evaluation compared to sucrose*: control solution sucrose 20 mg/ml
Protocol: Organoleptic Test of the Compounds of Formula (I) Against Sucrose and Mogroside V
The isolated pure compounds were dissolved in non-carbonated mineral water (“Fonsana Quelle”) in a concentration of 0.4 mg/ml (400 ppm). The sweet taste of each sample was compared by a panel of 4 panelists with a solution of sucrose in a concentration of 20 mg/ml and with a solution of the known sweetener mogroside V (isolated by AnalytiCon from Momordica grosvenori) in a concentration of 0.1 mg/ml (100 ppm).
The sweetness was evaluated as follows:
3=sweeter than the control solution
1=less sweet than the control solution but still sweet

SMILES | Organoleptic evaluation compared to mogroside V* | Organoleptic evaluation compared to sucrose*
C[C@H](CC[C@@H](O[C@@H]1O[C@H](CO)[C@@H](O)[C@H](O)[C@H]1O[C@@H]1O[C@H](CO)[C@@H](O)[C@H](O)[C@H]1O)C(C)(C)O)[C@H]1CC[C@@]2(C)[C@@H]3CC=C4C(CC[C@H](O)C4(C)C)[C@]3(C)[C@H](O)C[C@]12C (stereo partly drawn) [Compound Aa, (2S,3R,4S,5S,6R)-2-((2S,3R,4S,5S,6R)-2-((3R,6R)-6-((3S,8S,9R,11R,13R,14S,17R)-3,11-dihydroxy-4,4,9,13,14-pentamethyl-2,3,4,7,8,9,10,11,12,13,14,15,16,17-tetradecahydro-1H-cyclopenta[a]phenanthren-17-yl)-2-hydroxy-2-methylheptan-3-yloxy)-4,5-dihydroxy-6-(hydroxymethyl)tetrahydro-2H-pyran-3-yloxy)-6-(hydroxymethyl)tetrahydro-2H-pyran-3,4,5-triol] | 2 | 3
C[C@H](CC[C@@H](O[C@@H]1O[C@H](CO[C@@H]2O[C@H](CO)[C@@H](O)[C@H](O)[C@H]2O)[C@@H](O)[C@H](O)[C@H]1O[C@@H]1O[C@H](CO)[C@@H](O)[C@H](O)[C@H]1O)C(C)(C)O)[C@H]1CC[C@@]2(C)C3CC=C4C(CC[C@H](O[C@@H]5O[C@H](CO)[C@@H](O[C@@H]6O[C@H](CO)[C@@H](O)[C@H](O)[C@H]6O)[C@H](O)[C@H]5O)C4(C)C)[C@]3(C)CC[C@]12C (stereo partly shown) [Compound Cc] | 3 | 3
C[C@H](CC[C@@H](O[C@@H]1O[C@H](CO[C@@H]2O[C@H](CO)[C@@H](O)[C@H](O)[C@H]2O)[C@@H](O)[C@H](O)[C@H]1O[C@@H]1O[C@H](CO)[C@@H](O)[C@H](O)[C@H]1O)C(C)(C)O)[C@H]1CC[C@@]2(C)[C@@H]3CC=C4C(CC[C@H](O[C@@H]5O[C@H](CO)[C@@H](O)[C@H](O)[C@H]5O[C@@H]5O[C@H](CO)[C@@H](O)[C@H](O)[C@H]5O)C4(C)C)[C@]3(C)CC[C@]12C (stereo partly shown) [Compound Dd] | 3 | 3
C[C@H](CC[C@@H](O[C@@H]1O[C@H](CO[C@@H]2O[C@H](CO)[C@@H](O)[C@H](O)[C@H]2O)[C@@H](O)[C@H](O)[C@H]1O[C@@H]1O[C@H](CO)[C@@H](O)[C@H](O)[C@H]1O)C(C)(C)O)[C@H]1CC[C@@]2(C)[C@@H]3CC=C4C(CC[C@H](O[C@@H]5O[C@H](CO)[C@@H](O)[C@H](O)[C@H]5O)C4(C)C)[C@]3(C)CC[C@]12C (stereo partly shown) [Compound Ee] | 3 | 3
C[C@H](CC[C@@H](O[C@@H]1O[C@H](CO[C@@H]2O[C@H](CO)[C@@H](O)[C@H](O)[C@H]2O)[C@@H](O)[C@H](O)[C@H]1O[C@@H]1O[C@H](CO)[C@@H](O)[C@H](O)[C@H]1O)C(C)(C)O)[C@H]1CC[C@@]2(C)[C@@H]3CC=C4[C@@H](CC[C@H](O[C@@H]5O[C@H](CO)[C@@H](O)[C@H](O)[C@H]5O[C@@H]5O[C@H](CO)[C@@H](O)[C@H](O)[C@H]5O)C4(C)C)[C@]3(C)[C@H](O)C[C@]12C [Compound Ff] | 2 | 3
C[C@H](CC[C@@H](O[C@@H]1O[C@H](CO)[C@@H](O)[C@H](O)[C@H]1O[C@@H]1O[C@H](CO)[C@@H](O)[C@H](O)[C@H]1O)C(C)(C)O)[C@H]1CC[C@@]2(C)C3CC=C4C(CC[C@H](O[C@@H]5O[C@H](CO)[C@@H](O)[C@H](O)[C@H]5O)C4(C)C)[C@]3(C)CC[C@]12C (stereo partly shown) [Compound Gg] | 3 | 3
C[C@H](CCC(=O)C(C)(C)O)[C@H]1CC[C@@]2(C)C3CC=C4[C@@H](CC[C@H](O[C@@H]5O[C@H](CO[C@@H]6O[C@H](CO)[C@@H](O)[C@H](O)[C@H]6O)[C@@H](O)[C@H](O)[C@H]5O)C4(C)C)[C@]3(C)[C@H](O)C[C@]12C (stereo partly drawn) [Compound Hh, (6R)-2-hydroxy-6-((3S,9R,10R,11R,13R,14S,17R)-11-hydroxy-4,4,9,13,14-pentamethyl-3-((2R,3R,4S,5S,6R)-3,4,5-trihydroxy-6-(((2R,3R,4S,5S,6R)-3,4,5-trihydroxy-6-(hydroxymethyl)tetrahydro-2H-pyran-2-yloxy)methyl)tetrahydro-2H-pyran-2-yloxy)-2,3,4,7,8,9,10,11,12,13,14,15,16,17-tetradecahydro-1H-cyclopenta[a]phenanthren-17-yl)-2-methylheptan-3-one] | 1 | 2
C[C@H](CC[C@@H](O[C@@H]1O[C@H](CO[C@@H]2O[C@H](CO)[C@@H](O)[C@H](O)[C@H]2O)[C@@H](O)[C@H](O)[C@H]1O[C@@H]1O[C@H](CO)[C@@H](O)[C@H](O)[C@H]1O)C(C)(C)O)[C@H]1CC[C@@]2(C)C3CC=C4[C@@H](CCC(=O)C4(C)C)[C@]3(C)[C@H](O)C[C@]12C (stereo partly shown) [Compound Jj] | 2 | 3
C[C@H](CC[C@@H](O[C@@H]1O[C@H](CO[C@@H]2O[C@H](CO)[C@@H](O)[C@H](O)[C@H]2O)[C@@H](O)[C@H](O)[C@H]1O[C@@H]1O[C@H](CO)[C@@H](O)[C@H](O)[C@H]1O)C(C)(C)O)[C@H]1CC[C@@]2(C)C3CC=C4[C@@H](CC[C@H](O)C4(C)C)[C@]3(C)CC[C@]12C (stereo partly shown) [Compound Kk] | 1 | 2
C[C@H](CC[C@@H](O[C@@H]1O[C@H](CO[C@@H]2O[C@H](CO)[C@@H](O)[C@H](O)[C@H]2O)[C@@H](O)[C@H](O)[C@H]1O[C@@H]1O[C@H](CO)[C@@H](O)[C@H](O)[C@H]1O)C(C)(C)O)[C@H]1CC[C@@]2(C)C3CC=C4[C@@H](CC[C@H](O[C@@H]5O[C@H](CO)[C@@H](O)[C@H](O)[C@H]5O)C4(C)C)[C@]3(C)C(=O)C[C@]12C (stereo partly shown) [Compound Ll] | 3 | 3
C[C@H](CC[C@@H](O[C@@H]1O[C@H](CO[C@@H]2O[C@H](CO)[C@@H](O)[C@H](O)[C@H]2O)[C@@H](O)[C@H](O)[C@H]1O[C@@H]1O[C@H](CO)[C@@H](O)[C@H](O)[C@H]1O)C(C)(C)O)[C@H]1CC[C@@]2(C)C3CC=C4[C@@H](CC[C@H](O[C@@H]5O[C@H](CO)[C@@H](O)[C@H](O)[C@H]5O)C4(C)C)[C@]3(C)CC[C@]12C (stereo partly shown) [Compound Mm] | 3 | 3

Source: US10472385B2, “Triterpene-glycosides as sweeteners or sweetener enhancers” (priority 2013, dated 2019)
